Test results as given in US11951085B2, “Methods of treating injuries or conditions related to CNS edema” (BIOGEN CHESAPEAKE LLC, priority 2015, dated 2024).

Assays:
Type in all cases: in vivo, human
[1] = system: subjects with Large Hemispheric Infarction (brain lesions of 82 cc to 300 cc); assay: Randomized double blind placebo controlled study in Large Hemispheric Infarction: clinical outcomes (mortality, mRS, Barthel Index, EQ-5D); set-up: median mRS / EQ-5D Median Difference: scale not given here; settings: for Difference in 90 Day Score of mRS 0-4: Test Drug Group versus Placebo Group
Protocol: (§1) In order to determine the efficacy of SUR1-TRPM4 channel inhibitors for reducing or treating neurological conditions associated with cell swelling and CNS or cerebral edema, a randomized double blind placebo controlled clinical study was conducted. […] Within the “per protocol” group, 77 patients who were confirmed centrally to have brain lesions from 82 cc to 300 cc. Forty one of subjects were administered the test drug and 36 subjects were administered the placebo. The administration of the test drug was as follows: a bolus of 0.13 mg of the SUR1-TRPM4 channel inhibitor was administered over approximately 2 minutes followed by a continuous infusion of 0.16 mg/hr for 6 hours, and then a continuous infusion of 0.11 mg/hr for 66 hours, for a total dosing period of 72 hours. The total daily dose of Study Drug on Day 1, Day 2 and Day 3 was 3.12 mg, 2.67 mg, and 2.67 mg, respectively.
The incidence of mortality in the individuals was recorded at both 30 and 90 days following treatment. The Reduction in Mortality as a result of administration of the SUR1-TRPM4 channel inhibitor is shown in Table 2 below, and graphed in FIG. 1.
Additional mortality data was collected as it related to drug and placebo treatment with and without a Decompressive Craniectomy (DC). Essentially, the incidence of mortality was recorded for study participants that passed away following a DC prior to the end of the study period. The incidence of mortality when a DC occurred compared to no DC is shown in Table 3 below, and graphed in FIG. 2.
The subjects in this study were also tested using the modified Rankin Scale (mRS). One way to assess outcome in large strokes, such as those studied, is to determine the percentage of patients in each group who have a mRS of 0-4 at 90 days after stroke. The results of the 90 day mRS study is shown in Table 4 below, and graphed in FIG. 3.
The Barthel Index is another functional outcome that can be used to assess outcome of stroke patients. The subjects of the study were also scored using the Barthel index both initially and again at about 90 days. The degree of improvement in the Barthel index scores are shown in Table 5 below and graphed in FIG. 4.
Mortality can be multifactorial and may depend on factors such as preexisting comorbidities and risk factors. […] Specifically, cause of death was adjudicated by three adjudicators blinded to study drug group. Imaging and clinical data were used to determine, among other outcomes, cause of death. […] Consistent with our proposed mechanism of action, mortality attributable to edema was the driver behind reductions in overall mortality.
The magnitude of difference between placebo and treatment arms on the mRS as an ordinal scale is frequently measured using the Mann-Whitney test and a common odds ratio (OR) may be derived using the proportional odds methodology to explore effect size. In accordance with this, a common OR of 1.2 represents a clinically meaningful difference. The OR for effect size in patients ≤70 in the per-protocol population was 2.49, which represents a substantial clinical effect.
The Barthel Index (BI) is a measure of activities of daily living. It has been widely used and accepted in stroke trials and is one of the more prevalent scales used in acute stroke. In one example, a minimum clinically important change that is beyond measurement error is about 20 points on the 100-point scale, which was used as a benchmark in this study. The median delta or differences seen in the ≤70 per-protocol population at 90 days, 6 months, and 12 months between drug and placebo were 35, 27.5, and 45, respectively, all exceeding the accepted threshold. A common interpretation of the BI considers a score of ≤40 to be a clearly bad outcome, whereas a score of ≥60 is a clearly good outcome.
The EuroQol-5D (EQ-5D) is a generic instrument used to assess quality of life in a variety of conditions, including stroke. […]

MMP-9 = assay: Large Hemispheric Infarction study: MMP-9 values in blood samples; settings: blood samples at 24 hours and at 72 hours, averaged
Protocol: as §1
Additionally, MMP-9 values based in blood samples were taken at 24 hours and at 72 hours for the study participants and then averaged. MMP-9 levels are known to rise after stroke and are believed to represent blood brain barrier dysfunction. The MMP-9 average values are shown in Table 8 below, and graphed in FIG. 7.

[2] = system: subjects with TBI having lesional blood (contusion); assay: Randomized double blind placebo controlled study in Traumatic Brain Injury (MRI edema, GOSE)
Protocol: The administration of the test drug was as follows: a bolus of 0.13 mg of the SUR1-TRPM4 channel inhibitor was administered over approximately 2 minutes followed by a continuous infusion of 0.16 mg/hr for 6 hours, and then a continuous infusion of 0.11 mg/hr for 66 hours, for a total dosing period of 72 hours. The total daily dose of Study Drug on Day 1, Day 2 and Day 3 was 3.12 mg, 2.67 mg, and 2.67 mg, respectively. All subjects were assessed by MRI scans at baseline and 72 hours.
The 14 subjects (7 drug and 7 placebo) identified as having evidence of lesional blood (i.e., blood associated with a contusion) at baseline and having MRI scans at both baseline and 72 hours were assessed for edema using MIM software version 5.6. Blinded readers ascertained x, y, z measurements of the total apparent contusion using T2 images, unless missing, in which case, DTI images were used. Only contusions that could be reliably measured (measuring at least about 1 cc) were measured. Readers also ascertained the volume measurements of hemorrhages in a similar manner using SWI images. Linear measurements were captured in centimeters (cm) and all volumes in cubic centimeters (cc). Volumes were calculated using the ABC/2 standard. The volume of apparent edema was calculated as the difference between the overall apparent contusion volume and the volume of the hemorrhage. For analysis, if there were multiple lesions, the volumes of all lesions meeting the threshold were combined.

[3] = Large Hemispheric Infarction study: blood glucose monitoring; settings: one patient, receiving 10 wt % dextrose solution; infusion rate reduced by 30% and glucose stabilized
Protocol: as §1
a) During the Double Blind Placebo Controlled Study, there was a lab confirmed blood glucose level that dropped to 51 mg/dL which was recorded for one of the patients who was receiving a 10 wt % dextrose solution.

[4] = Full per-protocol population, 6 Months
[5] = Full per-protocol population, 12 Months
[6] = PP ≤ 9 hr (drug in 9 hours or less), N 33 (14/19)
[7] = patients ≤70, per-protocol population
[8] = ≤70 per-protocol population, 6 Months
[9] = ≤70 per-protocol population, 12 Months
[10] = ≤70 per-protocol population, Day 90

COc1ccc(Cl)cc1C(=O)NCCc1ccc(S(=O)(=O)NC(=O)NC2CCCCC2)cc1 [glyburide]
% Death 30 days ([1]; 41 individuals, per protocol): 14.6%
% Death 90 days ([1]; 41 individuals, per protocol): 17.1%
EQ-5D Median Difference [1, 4]: 0.34
Survival OR [1, 4]: 2.63
mRS OR [1, 4]: 1.88
EQ-5D Median Difference [1, 5]: 0.14
Survival OR [1, 5]: 2.54
mRS OR [1, 5]: 1.64
EQ-5D Median Difference ([1]; Full per-protocol population, 90 Days, drug vs placebo): 0.30
Survival OR ([1]; Full per-protocol population, Day 90): 2.74
mRS OR ([1]; Full per-protocol population, Day 90, ordinal): 1.91
Mortality OR ([1]; PP population, N 77 (36/41), logistic regression): 2.75
mRS 0-6 OR ([1]; PP population, N 77 (36/41), ordinal logistic regression): 1.91
Mortality OR [1, 6]: 2.96
mRS 0-6 OR [1, 6]: 2.31
Difference in 90 Day Score of mRS 0-4 [1]: 14.6%
Difference in 90 Day Score of mRS 0-4 ([1]; listed as Test Drug): +14.6%
"zero effect" lesion size ([1]; by extrapolation, mRS shift OR of 1): about 100 cc
EQ-5D median difference between drug and placebo ([1]; full and ≤70 per-protocol populations, all time points): greater than 0.12
Mortality with DC ([1]; number of deaths among 13 individuals receiving decompressive craniectomy): 2
Mortality without DC ([1]; number of deaths among 28 individuals with no decompressive craniectomy): 5
Mortality 90 days (includes 30 day values) ([1]; number of deaths among 41 individuals, per protocol): 7
Mortality 30 days ([1]; number of deaths among 41 individuals, per protocol, 30 days following treatment): 6
effect size at the mRS 0-3 dichotomization [1, 7]: 14%
effect size at the mRS 0-4 dichotomization [1, 7]: 22%
Adjudicated mortality due to edema ([1]; per-protocol group (1/41), placebo 22.22% (8/36), p=0.01): 2.44%
90 Day Score of mRS 0-4 ([1]; percentage of patients with mRS 0-4 at 90 days after stroke): 61.4%
median mRS ([1]; treated group, median of 5 in the placebo): 4
EQ-5D Median Difference [1, 8]: 0.29
Survival OR [1, 8]: 3.47
mRS OR [1, 8]: 2.33
EQ-5D Median Difference [1, 9]: 0.30
Survival OR [1, 9]: 4.00
mRS OR [1, 9]: 2.24
EQ-5D Median Difference ([1]; ≤70 per-protocol population, 90 Days): 0.29
Survival OR [1, 10]: 3.88
mRS OR [1, 10]: 2.49
MMP-9 Average (MMP-9): 193.18 ng/mL
evolution (growth) of edema from baseline to 72 hours ([2]; 7 drug subjects with lesional blood, MRI volume, placebo 10.28-fold): 2.14 fold
mean Glasgow Coma Scale Extended score (GOSE) ([2]; at 180 days, placebo 6.17): 6
drug-related effects in non-lesioned subjects or areas of the brain without a lesion ([2]; in vivo): No drug-related effects were detected
lab confirmed blood glucose level [3]: 51 mg/dL
